Measurements from doi:10.1101/2023.04.18.537371v1 (bioRxiv, 2023).
Peptide text beside a SMILES is read from it.

Experiments:
human hepatocytes = assay: LDH release cytotoxicity in the CYP induction assay; assay type: cell-based; conditions: three donors, 0.100, 1.00, 3.00, 10.0 and 15.0 μM
MATE1 = MATE1 (Homo sapiens, UniProt Q96FL8); assay: Transporter inhibition in HEK293 cells; assay type: in vitro ADME
[1] = In vitro protein binding, rapid equilibrium dialysis; assay type: in vitro ADME; conditions: beagle, dog, plasma
mouse hepatocytes = assay: Metabolite identification in hepatocytes; assay type: in vitro ADME; conditions: cryopreserved mouse hepatocytes, FC-12738 10 μM, 37 °C, 240 min, LC-UV-MS
OCT2 = OCT2 (Homo sapiens, UniProt O15244); assay: Transporter inhibition in HEK293 cells; assay type: in vitro ADME
[2] = Single rising dose pharmacokinetics in beagle dogs; assay type: in vivo, beagle dog; conditions: for AUC(0-inf) / AUC(0-t) / Cmax / Tmax / half-life: male, beagle, dog, plasma, sc
CYP2B6 = target: T1, CYP2B6 (Homo sapiens, UniProt P20813); assay: biochemical; assay type: in vitro ADME
T1 sequence (P20813 1-491): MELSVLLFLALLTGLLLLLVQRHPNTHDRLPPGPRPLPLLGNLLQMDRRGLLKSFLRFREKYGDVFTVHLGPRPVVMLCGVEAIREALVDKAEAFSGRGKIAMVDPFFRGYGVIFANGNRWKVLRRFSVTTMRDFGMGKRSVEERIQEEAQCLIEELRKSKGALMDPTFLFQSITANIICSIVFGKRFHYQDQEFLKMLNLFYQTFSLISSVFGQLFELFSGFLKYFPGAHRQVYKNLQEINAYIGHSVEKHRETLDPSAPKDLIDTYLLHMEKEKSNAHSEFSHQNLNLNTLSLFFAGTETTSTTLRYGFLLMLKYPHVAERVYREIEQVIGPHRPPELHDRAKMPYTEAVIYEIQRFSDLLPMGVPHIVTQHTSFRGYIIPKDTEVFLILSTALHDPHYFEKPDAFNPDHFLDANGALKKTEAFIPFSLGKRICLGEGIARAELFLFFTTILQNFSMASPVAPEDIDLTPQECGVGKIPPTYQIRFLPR

Plasma stability [3] = assay type: in vitro ADME, cynomolgus monkey
CYP3A = assay: CYP450 inhibition assay; assay type: in vitro ADME; conditions: human, pooled human liver microsomes
dog hepatocytes = assay: Metabolite identification in hepatocytes; assay type: in vitro ADME; conditions: cryopreserved dog hepatocytes, FC-12738 10 μM, 37 °C, 240 min, LC-UV-MS
CYP2C9 = CYP2C9 (Homo sapiens, UniProt P11712); assay: CYP450 inhibition assay; assay type: in vitro ADME
[4] = Metabolism of FC-12738 in SD rat plasma; assay type: in vivo
Plasma stability [5] = assay type: in vitro ADME, CD-1 mouse
Plasma stability [6] = assay type: in vitro ADME, human
SD rat hepatocytes = assay: Hepatocyte stability; assay type: in vitro ADME; conditions: 1.00 μM
OATP1B1 = OATP1B1 (Homo sapiens, UniProt Q9Y6L6); assay: Transporter inhibition in HEK293 cells; assay type: in vitro ADME
[7] = Single-dose pharmacokinetics in SD rats; assay type: in vivo, SD rat
CYP2D6 = CYP2D6 (Homo sapiens, UniProt P10635); assay: CYP time-dependent inhibition assay; assay type: in vitro ADME
OAT3 = OAT3 (Homo sapiens, UniProt Q8TCC7); assay: Transporter inhibition in HEK293 cells; assay type: in vitro ADME
[8] = cutoff IC50 shift >= 1.5-fold, 30 min pre-incubation ± NADPH
[9] = male, SD, rat, plasma, iv, 2 mg/kg
[10] = male, SD, rat, plasma, sc, 10 mg/kg

Chain of CYP2D6 (P10635 whole entry): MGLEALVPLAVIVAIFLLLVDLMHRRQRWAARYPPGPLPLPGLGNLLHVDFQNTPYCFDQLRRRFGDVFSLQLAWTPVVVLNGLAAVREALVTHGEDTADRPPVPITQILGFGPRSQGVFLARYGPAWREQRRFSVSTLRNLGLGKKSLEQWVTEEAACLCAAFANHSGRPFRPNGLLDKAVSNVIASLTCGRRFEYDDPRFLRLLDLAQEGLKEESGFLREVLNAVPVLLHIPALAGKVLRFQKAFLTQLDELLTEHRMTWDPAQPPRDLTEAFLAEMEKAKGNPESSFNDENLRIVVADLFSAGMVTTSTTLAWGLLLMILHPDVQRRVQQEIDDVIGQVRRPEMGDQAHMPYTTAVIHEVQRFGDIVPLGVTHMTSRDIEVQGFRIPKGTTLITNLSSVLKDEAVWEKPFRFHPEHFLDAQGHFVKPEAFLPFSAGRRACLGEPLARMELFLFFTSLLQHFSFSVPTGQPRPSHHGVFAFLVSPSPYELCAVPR
Chain of MATE1 (Q96FL8 whole entry): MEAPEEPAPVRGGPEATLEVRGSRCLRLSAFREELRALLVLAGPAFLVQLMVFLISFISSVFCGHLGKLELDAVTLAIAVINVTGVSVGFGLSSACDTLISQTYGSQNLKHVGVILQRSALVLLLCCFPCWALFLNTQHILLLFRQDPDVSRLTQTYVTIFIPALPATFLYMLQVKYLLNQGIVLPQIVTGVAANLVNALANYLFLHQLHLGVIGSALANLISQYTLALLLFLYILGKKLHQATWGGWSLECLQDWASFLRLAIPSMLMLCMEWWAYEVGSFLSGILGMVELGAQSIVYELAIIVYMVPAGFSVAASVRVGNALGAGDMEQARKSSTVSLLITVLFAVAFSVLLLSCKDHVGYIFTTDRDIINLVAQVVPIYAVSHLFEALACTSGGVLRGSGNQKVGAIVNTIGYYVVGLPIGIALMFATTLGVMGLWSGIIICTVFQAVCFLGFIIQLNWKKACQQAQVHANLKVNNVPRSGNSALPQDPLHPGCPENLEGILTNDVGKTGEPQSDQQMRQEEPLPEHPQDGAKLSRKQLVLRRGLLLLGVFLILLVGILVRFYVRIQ
Chain of OAT3 (Q8TCC7 whole entry): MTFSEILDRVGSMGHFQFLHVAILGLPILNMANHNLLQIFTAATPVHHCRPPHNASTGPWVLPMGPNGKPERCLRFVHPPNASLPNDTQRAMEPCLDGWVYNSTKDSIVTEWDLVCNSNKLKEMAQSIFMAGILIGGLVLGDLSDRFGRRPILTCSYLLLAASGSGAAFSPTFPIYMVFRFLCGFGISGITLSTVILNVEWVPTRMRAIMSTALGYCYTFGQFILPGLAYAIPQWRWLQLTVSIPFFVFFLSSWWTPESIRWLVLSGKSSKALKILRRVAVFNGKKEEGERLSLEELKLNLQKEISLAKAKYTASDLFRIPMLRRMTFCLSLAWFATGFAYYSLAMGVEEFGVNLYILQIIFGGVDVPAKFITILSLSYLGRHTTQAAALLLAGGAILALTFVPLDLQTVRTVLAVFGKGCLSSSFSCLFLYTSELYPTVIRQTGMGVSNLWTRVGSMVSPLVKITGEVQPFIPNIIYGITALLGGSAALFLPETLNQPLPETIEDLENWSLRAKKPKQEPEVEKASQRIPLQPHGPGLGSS
Chain of OATP1B1 (Q9Y6L6 whole entry, species assumed): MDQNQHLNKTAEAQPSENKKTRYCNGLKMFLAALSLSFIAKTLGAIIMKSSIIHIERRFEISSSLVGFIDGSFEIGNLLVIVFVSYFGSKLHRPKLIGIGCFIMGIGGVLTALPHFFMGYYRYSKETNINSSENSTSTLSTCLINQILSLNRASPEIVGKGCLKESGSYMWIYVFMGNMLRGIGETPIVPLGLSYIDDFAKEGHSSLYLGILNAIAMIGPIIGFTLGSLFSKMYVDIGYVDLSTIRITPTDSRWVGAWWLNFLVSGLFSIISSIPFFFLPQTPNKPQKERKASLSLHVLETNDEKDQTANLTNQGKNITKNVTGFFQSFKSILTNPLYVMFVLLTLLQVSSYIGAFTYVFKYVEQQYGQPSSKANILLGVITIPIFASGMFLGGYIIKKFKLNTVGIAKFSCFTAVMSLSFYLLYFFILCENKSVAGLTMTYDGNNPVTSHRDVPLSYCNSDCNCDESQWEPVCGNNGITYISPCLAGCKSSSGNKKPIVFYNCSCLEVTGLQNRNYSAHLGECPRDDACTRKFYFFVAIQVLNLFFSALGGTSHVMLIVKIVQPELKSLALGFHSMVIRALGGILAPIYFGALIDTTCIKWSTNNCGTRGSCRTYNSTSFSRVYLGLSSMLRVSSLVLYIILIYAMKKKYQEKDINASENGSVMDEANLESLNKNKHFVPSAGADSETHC
Chain of CYP2C9 (P11712 whole entry): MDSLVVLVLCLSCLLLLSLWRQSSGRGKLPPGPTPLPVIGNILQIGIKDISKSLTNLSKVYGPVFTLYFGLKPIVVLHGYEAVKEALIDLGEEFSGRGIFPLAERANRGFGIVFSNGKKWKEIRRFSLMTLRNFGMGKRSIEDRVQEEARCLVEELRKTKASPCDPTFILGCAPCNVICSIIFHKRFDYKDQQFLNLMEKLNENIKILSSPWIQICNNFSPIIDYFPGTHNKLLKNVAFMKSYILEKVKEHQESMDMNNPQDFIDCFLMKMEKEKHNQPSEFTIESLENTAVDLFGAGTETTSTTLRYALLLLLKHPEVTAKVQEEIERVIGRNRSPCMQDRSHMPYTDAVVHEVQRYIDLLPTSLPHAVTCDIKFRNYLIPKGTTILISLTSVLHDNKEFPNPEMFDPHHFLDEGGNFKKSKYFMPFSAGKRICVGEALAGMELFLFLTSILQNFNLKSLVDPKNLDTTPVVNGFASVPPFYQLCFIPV
Chain of OCT2 (O15244 whole entry): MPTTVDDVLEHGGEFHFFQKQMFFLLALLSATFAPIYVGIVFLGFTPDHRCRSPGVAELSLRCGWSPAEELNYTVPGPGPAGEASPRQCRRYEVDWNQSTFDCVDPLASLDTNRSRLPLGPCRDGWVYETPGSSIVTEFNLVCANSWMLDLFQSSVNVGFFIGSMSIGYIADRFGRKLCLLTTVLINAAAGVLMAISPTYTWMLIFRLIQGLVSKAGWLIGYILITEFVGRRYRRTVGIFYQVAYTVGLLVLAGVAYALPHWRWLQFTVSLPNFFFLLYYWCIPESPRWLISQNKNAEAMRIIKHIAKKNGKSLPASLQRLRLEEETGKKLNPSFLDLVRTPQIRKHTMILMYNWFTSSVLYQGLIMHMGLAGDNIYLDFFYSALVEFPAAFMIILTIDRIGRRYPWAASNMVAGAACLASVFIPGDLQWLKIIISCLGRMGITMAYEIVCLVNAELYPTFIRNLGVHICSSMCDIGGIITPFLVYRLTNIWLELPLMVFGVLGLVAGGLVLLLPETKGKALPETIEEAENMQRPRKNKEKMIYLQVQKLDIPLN

## CC(C)[C@@H](NC(=O)[C@H](N)Cc1ccc(O)cc1)C(=O)N[C@H](CC(=O)O)C(=O)N[C@H](CCCCN)C(=O)N[C@H](CCCNC(=N)N)C(=O)O [FC-12738, (D-Tyr)-(D-Val)-(D-Asp)-(D-Lys)-(D-Arg)] (HELM PEPTIDE1{[dY].[dV].[dD].[dK].[dR]}$$$$V2.0)
Human hepatocytes
  Cytotoxicity (released LDH): no cytotoxicity
MATE1
  IC50: > 100 µM
[1]
  fraction unbound at 6 h, 0.2 µM: 0.492
  fraction unbound at 6 h, 2 µM: 0.461
  fraction unbound at 6 h, 10 µM: 0.691
Mouse hepatocytes
  Relative Abundance (UV%): 88.92%
OCT2
  IC50: > 100 µM
[2]; male beagle dogs, SC 1 to 25 mg/kg
  Dose dependence of systemic exposure (AUC0-last and Cmax): increased with dose proportionally
[2]; 1 mg/kg
  AUC(0-inf): 2770 ng·h/mL
  AUC(0-t): 2760 ng·h/mL
  Cmax: 925 ng/mL
  Tmax: 60 min
  half-life: 57.4 min
[2]; 5 mg/kg
  AUC(0-inf): 16800 ng·h/mL
  AUC(0-t): 16700 ng·h/mL
  Cmax: 7090 ng/mL
  Tmax: 60 min
  half-life: 54.4 min
[2]; 25 mg/kg
  AUC(0-inf): 72800 ng·h/mL
  AUC(0-t): 72800 ng·h/mL
  Cmax: 33300 ng/mL
  Tmax: 40 min
  half-life: 121 min
CYP2B6
  IC50: > 100 µM
CYP2B6; [8]
  Time-dependent inhibition of CYP2B6: no time-dependent inhibition
Plasma stability [3]; cynomolgus monkey plasma, 2.00 μM, 37.0 °C, up to 120 min
  half-life: > 372.7 min
Plasma stability [3]; monkey, plasma
  remaining at 10 min, 2 μM: 105%
  remaining at 0.5 h, 2 μM: 105%
  remaining at 1 h, 2 μM: 105%
  remaining at 2 h, 2 μM: 102%
CYP3A
  IC50: > 100 µM
Dog hepatocytes
  Relative Abundance (UV%): 80.76%
CYP2C9
  IC50: > 100 µM
[4]; male SD rat plasma 0-2 h, IV 2 mg/kg FC-12738 single
  Relative MS abundance (%Total): 97.10%
[4]; male SD rat plasma 0-4 h, SC 10 mg/kg FC-12738 single
  Relative MS abundance (%Total): 96.57%
Plasma stability [5]; CD-1, mouse, plasma
  remaining at 10 min, 2 μM: 104%
  remaining at 0.5 h, 2 μM: 100%
  remaining at 1 h, 2 μM: 111%
  remaining at 2 h, 2 μM: 100%
Plasma stability [5]; CD-1 mouse plasma, 2.00 μM, 37.0 °C, up to 120 min
  half-life: > 372.7 min
Plasma stability [6]; human plasma, 2.00 μM, 37.0 °C, up to 120 min
  half-life: > 372.7 min
Plasma stability [6]; human, plasma
  remaining at 10 min, 2 μM: 93.3%
  remaining at 0.5 h, 2 μM: 93.6%
  remaining at 1 h, 2 μM: 90.6%
  remaining at 2 h, 2 μM: 85.6%
SD rat hepatocytes; cryopreserved SD rat hepatocytes, 37.0°C, 120 min
  intrinsic clearance CLint(hep): < 1.9 μL/min/10^6 cells
SD rat hepatocytes; cryopreserved SD rat hepatocytes, 37.0°C, 120 min, LC-MS/MS
  half-life: > 372.7 min
SD rat hepatocytes; scaled from SD rat hepatocytes
  hepatic clearance CLint(liver): < 8.7 mL/min/kg
OATP1B1
  IC50: > 100 µM
[7]; male SD rats, IV 2 mg/kg or SC 10 mg/kg single
  Tolerability / adverse effects in-life: No adverse effect was observed
[7]; [9]
  AUC(0-inf): 2830 ng·h/mL
  AUC(0-t): 2800 ng·h/mL
  C0: 7830 ng/mL
  Vd: 0.309 L/kg
  clearance: 11.8 mL/min/kg
  half-life: 19.1 min
[7]; [10]
  AUC(0-inf): 13000 ng·h/mL
  AUC(0-t): 13000 ng·h/mL
  Cmax: 8430 ng/mL
  Tmax: 25 min
  bioavailability: 91.9%
  half-life: 40.8 min
CYP2D6
  IC50: > 100 µM
CYP2D6; [8]
  Time-dependent inhibition of CYP2D6: no time-dependent inhibition
OAT3
  IC50: > 100 µM
